# Results taken from patent EP1828393B1 (priority 2004, dated 2006).
# Test: Miscibility of glycolonitrile with water
# Format: physicochemical
# Details: 25 °C
# Excerpt: As the reaction progresses, the α-hydroxynitrile dissolves into the aqueous phase, and eventually a single phase product mixture is obtained. The reaction may also be run by adding the α-hydroxynitrile to the reaction mixture at a rate approximately equal to the enzymatic hydrolysis reaction rate, thereby maintaining a single-phase aqueous reaction mixture, and avoiding the potential problem of substrate inhibition of the enzyme at high starting material concentrations.
smiles,measurement,value
"N#CCO [Glycolonitrile, glycolonitrile]",miscibility with water,completely miscible with water in all proportions
